Here are results for ten molecules from US20100056508A1, “AMINE DERIVATIVES AND THEIR USE IN BETA-2-ADRENORECEPTOR MEDIATED DISEASES” (ASTRAZENECA AB, priority 2006, published 2010).

In one assay the target is T1, Adrenergic β2 (Homo sapiens, UniProt P07550).
T1 construct: Adherent H292 cells were removed from tissue culture flasks; endogenous in cells; host or cells: H292 cells
Nature of the assay: Adrenergic β2 mediated cAMP production in H292 cells (AlphaScreen cAMP detection). Type of assay: cell-based. Set-up: key to β2 Int Act: fraction of formoterol maximum activity (formoterol = 1). Conditions: for β2 Int Act: Intrinsic Activity as a fraction relative to the maximum activity determined for formoterol; for EC50: cAMP production, 60 minutes at room temperature, 300 μM rolipram, read-out: β2 pEC50 (converted). Here is the method:
Adrenergic β2 Mediated cAMP Production
H292 cells were grown in 225 cm2 flasks incubator at 37° C., 5% CO2 in RPMI medium containing, 10% (v/v) FBS (foetal bovine serum) and 2 mM L-glutamine.
Adherent H292 cells were removed from tissue culture flasks by treatment with Accutase™ cell detachment solution for 15 minutes. Flasks were incubated for 15 minutes in a humidified incubator at 37° C., 5% CO2. Detached cells were re-suspended in RPMI media (containing 10% (v/v) FBS and 2 mM L-glutamine) at 1×10^6 cells per mL. 10000 cells in 100 μL were added to each well of a tissue-culture-treated 96-well plate and the cells incubated overnight in a humidified incubator at 37° C., 5% CO2. The culture media was removed and cells were washed twice with 100 μL assay buffer and replaced with 50 μL assay buffer (HBSS solution containing 10 mM HEPES pH7.4 and 5 mM glucose). Cells were rested at room temperature for 20 minutes after which time 25 μL of rolipram (1.2 mM made up in assay buffer containing 2.4% (v/v) dimethylsulphoxide) was added. Cells were incubated with rolipram for 10 minutes after which time test compounds were added and the cells were incubated for 60 minutes at room temperature. The final rolipram concentration in the assay was 300 μM and final vehicle concentration was 1.6% (v/v) dimethylsulphoxide. The reaction was stopped by removing supernatants, washing once with 100 μL assay buffer and replacing with 50 μL lysis buffer. The cell monolayer was frozen at −80° C. for 30 minutes (or overnight).
AlphaScreen™ cAMP Detection
The concentration of cAMP (cyclic adenosine monophosphate) in the cell lysate was determined using AlphaScreen™ methodology. The frozen cell plate was thawed for 20 minutes on a plate shaker then 10 μL of the cell lysate was transferred to a 96-well white plate. 40 μL of mixed AlphaScreen™ detection beads pre-incubated with biotinylated cAMP, was added to each well and the plate incubated at room temperature for 10 hours in the dark. The AlphaScreen™ signal was measured using an EnVision spectrophotometer (Perkin-Elmer Inc.) with the recommended manufacturer's settings. cAMP concentrations were determined by reference to a calibration curve determined in the same experiment using standard cAMP concentrations. Concentration response curves for agonists were constructed and data was fitted to a four parameter logistic equation to determine both the pEC50 and Intrinsic Activity. Intrinsic Activity was expressed as a fraction relative to the maximum activity determined for formoterol in each experiment.
Background: cAMP levels reflect the balance of adenylyl cyclase and phosphodiesterase activity.

Assay [1] has as its target T2, recombinant human α1D receptor (Homo sapiens, UniProt P25100).
T2 construct: expressed in transfected cells; host or cells: human embryonic kidney 293 cells (HEK93 [sic]), membranes
T2 sequence (P25100 1-572): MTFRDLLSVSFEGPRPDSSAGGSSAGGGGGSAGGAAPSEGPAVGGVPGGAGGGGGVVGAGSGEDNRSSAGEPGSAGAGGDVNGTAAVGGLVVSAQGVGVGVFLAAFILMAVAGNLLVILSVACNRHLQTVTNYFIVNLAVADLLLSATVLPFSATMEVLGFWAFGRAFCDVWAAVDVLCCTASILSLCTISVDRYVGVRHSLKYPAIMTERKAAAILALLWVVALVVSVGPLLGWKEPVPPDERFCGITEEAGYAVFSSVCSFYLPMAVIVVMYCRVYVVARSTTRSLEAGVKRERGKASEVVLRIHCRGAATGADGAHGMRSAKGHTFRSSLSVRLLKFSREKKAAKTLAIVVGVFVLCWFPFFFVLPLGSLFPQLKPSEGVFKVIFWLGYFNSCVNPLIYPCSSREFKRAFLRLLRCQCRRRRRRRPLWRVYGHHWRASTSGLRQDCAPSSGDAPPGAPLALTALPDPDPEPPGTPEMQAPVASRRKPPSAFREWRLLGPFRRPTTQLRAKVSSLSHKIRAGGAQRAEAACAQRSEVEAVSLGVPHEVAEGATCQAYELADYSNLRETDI
Nature of the assay: Adrenergic α1D selectivity assay, [3H]-prazosin binding to membranes. The note with it: inhibition of [3H]-prazosin binding, HEK cell membranes, read-out: α1 bind pIC50 (converted). Here is the method: Membranes were prepared from human embryonic kidney 293 ([…]) cells expressing recombinant human α1D receptor. These were diluted in Assay Buffer (50 mM HEPES, 1 mM EDTA, pH 7.4) to provide a final concentration of membranes that gave a clear window between maximum and minimum specific binding.
Assays were performed in U-bottomed 96-well polypropylene plates. 10 μL [^3H]-prazosin (0.3 nM final concentration) and […] of test compound (10× final concentration) were added to each test well. For each assay plate 8 replicates were obtained for [^3H]-prazosin binding in the presence of 10 μL vehicle (10% (v/v) DMSO in Assay Buffer; defining maximum binding) or 10 μL BMY7378 (10 μM final concentration; defining non-specific binding (NSB)). Membranes were then added to achieve a final volume of 100 μL. The plates were incubated for 2 hours at room temperature and then filtered onto PEI coated GF/B filter plates, pre-soaked for 1 hour in Assay Buffer, using a 96-well plate Tomtec cell harvester. Five washes with 250 μL wash buffer (50 mM HEPES, 1 mM EDTA, pH 7.4) were performed at 4° C. to remove unbound radioactivity. The plates were dried then sealed from underneath using Packard plate sealers and MicroScint-O (50 μL) was added to each well. The plates were sealed (TopSeal A) and filter-bound radioactivity was measured with a scintillation counter (TopCount, Packard BioScience) using a 3-minute counting protocol.
Total specific binding (B0) was determined by subtracting the mean NSB from the mean maximum binding. NSB values were also subtracted from values from all other wells. […] Data was fitted to a four parameter logistic equation to determine the compound potency, which was expressed as pIC50 (negative log molar concentration inducing 50% inhibition of [^3H]-prazosin binding).

Assay [2] deals with T3, recombinant human Dopamine Subtype D2s receptors (Homo sapiens, UniProt P14416).
T3 construct: purchased Perkin Elmer
T3 sequence (P14416 1-414 isoform P14416-2): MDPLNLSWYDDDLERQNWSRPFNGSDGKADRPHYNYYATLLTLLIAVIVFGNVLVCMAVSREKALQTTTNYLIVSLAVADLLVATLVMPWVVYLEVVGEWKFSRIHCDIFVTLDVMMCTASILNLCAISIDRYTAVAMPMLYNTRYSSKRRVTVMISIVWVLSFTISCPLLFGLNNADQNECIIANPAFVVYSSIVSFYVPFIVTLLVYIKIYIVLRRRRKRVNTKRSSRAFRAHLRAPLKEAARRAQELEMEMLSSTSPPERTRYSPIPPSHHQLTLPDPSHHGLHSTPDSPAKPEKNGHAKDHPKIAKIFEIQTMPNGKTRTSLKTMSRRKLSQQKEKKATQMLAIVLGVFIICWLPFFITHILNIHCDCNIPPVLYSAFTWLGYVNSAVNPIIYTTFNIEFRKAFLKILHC
The assay is described as follows: Dopamine D2 selectivity assay, [3H]-spiperone binding to membranes. The note with it: inhibition of [3H]-spiperone binding, read-out: D2 bind pIC50 (converted). Here is the method:
Membranes containing recombinant human Dopamine Subtype D2s receptors were obtained from Perkin Elmer. These were diluted in Assay Buffer (50 mM HEPES, 1 mM EDTA, 120 mM NaCl, 0.1% gelatin, pH 7.4) to provide a final concentration of membranes that gave a clear window between maximum and minimum specific binding.
Assays were performed in U-bottomed 96-well polypropylene plates. 30 μL [^3H]-spiperone (0.16 nM final concentration) and 30 μL of test compound (10× final concentration) were added to each test well. For each assay plate 8 replicates were obtained for [^3H]-spiperone binding in the presence of 30 μL vehicle (10% (v/v) DMSO in Assay Buffer; defining maximum binding) or 30 μL Haloperidol (10 μM final concentration; defining non-specific binding (NSB)). Membranes were then added to achieve a final volume of 300 μL. The plates were incubated for 2 hours at room temperature and then filtered onto PEI coated GF/B filter plates, pre-soaked for 1 hour in Assay Buffer, using a 96-well plate Tomtec cell harvester. Five washes with 250 μL wash buffer (50 mM HEPES, 1 mM EDTA, 120 mM NaCl, pH 7.4) were performed at 4° C. to remove unbound radioactivity. The plates were dried then sealed from underneath using Packard plate sealers and MicroScint-0 (50 μL) was added to each well. The plates were sealed (TopSeal A) and filter-bound radioactivity was measured with a scintillation counter (TopCount, Packard BioScience) using a 3-minute counting protocol.
Total specific binding (B0) was determined by subtracting the mean NSB from the mean maximum binding. NSB values were also subtracted from values from all other wells. […] Data was fitted to a four parameter logistic equation to determine the compound potency, which was expressed as pIC50 (negative log molar concentration inducing 50% inhibition of [^3H]-spiperone binding).

Where a name gives a salt, the structure may show the parent alone.

T1 sequence (P07550 whole entry): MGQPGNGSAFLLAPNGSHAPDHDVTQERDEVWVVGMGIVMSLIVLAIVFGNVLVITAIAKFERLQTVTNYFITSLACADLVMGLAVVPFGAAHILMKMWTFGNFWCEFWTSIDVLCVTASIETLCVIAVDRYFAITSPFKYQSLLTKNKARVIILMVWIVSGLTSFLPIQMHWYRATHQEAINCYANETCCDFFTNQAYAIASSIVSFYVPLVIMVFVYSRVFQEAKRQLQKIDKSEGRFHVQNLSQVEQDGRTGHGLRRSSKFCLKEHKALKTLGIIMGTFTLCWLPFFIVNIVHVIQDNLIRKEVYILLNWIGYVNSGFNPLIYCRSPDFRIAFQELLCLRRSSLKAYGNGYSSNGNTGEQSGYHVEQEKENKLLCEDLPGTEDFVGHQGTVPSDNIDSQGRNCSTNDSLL

Consider `CCCCN(CCNCCc1ccc(O)c2[nH]c(=O)ccc12)C(=O)CCOCCc1ccccc1` [Example 1, N-Butyl-N-(2-(2-(8-hydroxy-2-oxo-1,2-dihydroquinolin-5-yl)ethylamino)ethyl)-3-phenethoxypropanamide hydrochloride], for which, on Adrenergic β2, the “β2 Int Act” value was 0.9 and the EC50 was 398 nM.

As to `O=C(CCNCCc1cccc(F)c1)N(CCNCCc1ccc(O)c2[nH]c(=O)ccc12)C1CCCCCC1` [Example 5, N-Cycloheptyl-3-(3-fluorophenethylamino)-N-(2-(2-(8-hydroxy-2-oxo-1,2-dihydroquinolin-5-yl)ethylamino)ethyl)propanamide bis(trifluoroacetate)], the “β2 Int Act” value at Adrenergic β2 came out at 0.82. At Adrenergic β2, the EC50 was 7.94 nM. For the same molecule, the IC50 in assay [1] is 158 nM; in assay [2], 501 nM.

Take `O=C(CCNCCc1ccc(F)cc1)N(CCNCCc1ccc(O)c2[nH]c(=O)ccc12)C1CCCCCC1` [Example 6, N-Cycloheptyl-3-(4-fluorophenethylamino)-N-(2-(2-(8-hydroxy-2-oxo-1,2-dihydroquinolin-5-yl)ethylamino)ethyl)propanamide bis(trifluoroacetate)]: on Adrenergic β2, the “β2 Int Act” value is 0.65 and the EC50 was 31.6 nM. Besides, the IC50 in assay [1] is 50.1 nM. For the same molecule, the IC50 in assay [2] is 251 nM.

On to `O=C(CCNCCc1ccccc1)N(CCNCCc1ccc(O)c2[nH]c(=O)ccc12)C1CCCCCC1` [Example 7, N-Cycloheptyl-N-(2-(2-(8-hydroxy-2-oxo-1,2-dihydroquinolin-5-yl)ethylamino)ethyl)-3-(phenethylamino)propanamide bis(trifluoroacetate)], for which, at Adrenergic β2, the “β2 Int Act” value turned out to be 0.76 and the EC50 is 10 nM. In assay [1], the IC50 is 126 nM. Further, the IC50 in assay [2] was 316 nM.

Consider `Cc1cccc(CCNCCC(=O)N(CCNCCc2ccc(O)c3[nH]c(=O)ccc23)C2CCCCCC2)c1` [Example 8, N-Cycloheptyl-N-(2-(2-(8-hydroxy-2-oxo-1,2-dihydroquinolin-5-yl)ethylamino)ethyl)-3-(3-methylphenethylamino)propanamide bis(trifluoroacetate)], for which, on Adrenergic β2, the “β2 Int Act” value is reported as 0.79. Further, at Adrenergic β2, the EC50 is 6.31 nM. For the same molecule, the IC50 in assay [1] is 100 nM; in assay [2], 398 nM.

Take `C[C@H](CNCCC(=O)N(CCNCCc1ccc(O)c2[nH]c(=O)ccc12)C1CCCCCC1)c1ccccc1` [Example 9, (S)—N-Cycloheptyl-N-(2-(2-(8-hydroxy-2-oxo-1,2-dihydroquinolin-5-yl)ethylamino)ethyl)-3-(2-phenylpropylamino)propanamide bis(trifluoroacetate)]: at Adrenergic β2, the “β2 Int Act” value came out at 0.91 and the EC50 is 39.8 nM.

Turning to `O=C(CCNCCc1cccc(-c2ccccc2)c1)N(CCNCCc1ccc(O)c2[nH]c(=O)ccc12)C1CCCCCC1` [Example 12, 3-(2-(Biphenyl-3-yl)ethylamino)-N-cycloheptyl-N-(2-(2-(8-hydroxy-2-oxo-1,2-dihydroquinolin-5-yl)ethylamino)ethyl)propanamide bis(trifluoroacetate)], at Adrenergic β2, the “β2 Int Act” value worked out at 0.67 and the EC50 was 50.1 nM. Besides, the IC50 in assay [1] was 316 nM. Besides, the IC50 in assay [2] was 126 nM.

Take `O=C(CCNCCc1cccc(F)c1)N(CCNCCc1ccc(O)c2[nH]c(=O)ccc12)C1CCCCC1` [Example 19, N-Cyclohexyl-3-(3-fluorophenethylamino)-N-(2-(2-(8-hydroxy-2-oxo-1,2-dihydroquinolin-5-yl)ethylamino)ethyl)propanamide]: on Adrenergic β2, the “β2 Int Act” value was found to be 0.87 and the EC50 was 10 nM. Besides, in assay [1], the IC50 is 200 nM. Moreover, in assay [2], the IC50 was 1260 nM.

For `O=C1Cc2c(CCNCCN(C(=O)CCNCCc3cccc(F)c3)C3CCCCC3)ccc(O)c2N1` [Example 20, N-Cyclohexyl-3-(3-fluorophenethylamino)-N-(2-(2-(7-hydroxy-2-oxoindolin-4-yl)ethylamino)ethyl)propanamide dihydrobromide], at Adrenergic β2, the “β2 Int Act” value is given as 0.78 and the EC50 is 7.94 nM. Besides, the IC50 in assay [1] was 158 nM. In assay [2], the IC50 is 398 nM.

For the molecule `O=C(CCOCCc1cc(F)cc(F)c1)N(CCNCCc1ccc(O)c2[nH]c(=O)ccc12)C1CCCCC1` [Example 78, N-Cyclohexyl-3-(3,5-difluorophenethoxy)-N-(2-(2-(8-hydroxy-2-oxo-1,2-dihydroquinolin-5-yl)ethylamino)ethyl)propanamide trifluoroacetate], at Adrenergic β2, the “β2 Int Act” value amounted to 1.01 and the EC50 is 20 nM. The IC50 in assay [1] is 794 nM.
